# Reference: US20250346866A1, “CELL AGGREGATE DISSOCIATING AGENT” (AJINOMOTO CO., INC., priority 2023, published 2025)
# Columns and labels:
# Format in all cases: cell-based
# [1] = test system: human iPS cells (1383D2 strain) cell aggregates; test: Dissociation of human iPS cell aggregates by stirring with dissociation agent (micrographs, Vi-CELL viable cell density); details: culture medium with 10 μM Y-27632; WK11 stirred 17 min, EDTA 2.5 mM stirred 14 min; FIG. 2, FIG. 3
# Experimental: The iPS cells maintenance cultured in (2) were seeded at a concentration of 1.5×10^5 cells/mL in a multi-well plate with StemFit (registered trademark) AK03N (Ajinomoto Co., Inc.) containing 10 μM Y-27632 added thereto, and cultured with stirring at a rotation speed of 70 rpm using an orbital shaker MaxQ™ 2000 CO2 Plus (Thermo Fisher Scientific) placed in a CO2 incubator at 37° C. One and three days after seeding, 50 vol % each of the medium was exchanged with AK02N, and the culture was continued until four days later to obtain cell aggregates.
# To a culture medium containing the cell aggregates prepared in (3) were added Y-27632 (final concentration 10 μM) and WK11 pre-treated in (1), and the mixture was stirred for 17 min using an orbital shaker. Thereafter, the cell aggregates were sufficiently brought to a single-cell state by pipetting, and the viable cell density was measured using a live/dead cell autoanalyzer Vi-CELL XR (BECKMAN COULTER). […]
# To a culture medium containing the cell aggregates prepared in (3) were added Y-27632 (final concentration 10 μM) and EDTA (final concentration 2.5 mM), and the mixture was stirred for 14 min using an orbital shaker. […] The viable cell density of the obtained cell suspension was measured using Vi-CELL XR.
# The viable cell density in the culture medium was calculated from the Vi-CELL measured values in Example 1 (4), (5), and (6). […]
# [2] = test system: human iPS cells (1383D2 strain); test: Suspension culture after passage: proliferation, viable cell density and aggregate formation; details: for proliferation in 4 days after passage (viable cell density): seeded 1.5×10^5 cells/mL, 4 days suspension culture, FIG. 6
# Experimental: A new multi-well plate containing AK02N containing 10 μM Y-27632 was prepared, and the cells obtained in (4), (5), and (6) were respectively seeded at a density of 1.5×10^5 cells/mL. The cells were cultured in a CO2 incubator while stirring with an orbital shaker. One and three days after seeding, 50 vol % each of the medium was exchanged with AK02N, and the suspension culture was continued until four days later.
# To accurately measure the number of viable cells, after four days of culture, under the same conditions, the following operation, including centrifugation, was performed. The entire volume of each culture medium was collected in a 15-mL conical tube, and the supernatant was removed by centrifugation (200 G, 5 min, 25° C.). Accutase™ (Nacalai Tesque Inc., 12679-54) (0.5 mL) was added and the mixture was heated at 37° C. for 15 min, after which the cell aggregates were sufficiently brought to a single-cell state by pipetting. The cells attached to the wall of the conical tube were sufficiently washed with AK02N, and the supernatant was removed by centrifugation (200 G, 5 min, 25° C.). The cells were resuspended in AK02N containing 10 μM Y-27632, and the viable cell density was measured using Vi-CELL XR.
# The viable cell density in the culture medium was calculated from the Vi-CELL measured values in Example 1 (4), (5), and (6). A great difference in the viable cell density was not observed depending on the passage method. The viable cell density in the culture medium was calculated from the Vi-CELL measured values in Example 1 (7). The cells passaged using WK11 proliferated 3.4-fold in 4 days, whereas the cells passaged using EDTA without centrifugation removal proliferated 0.03-fold. Even when the centrifugation step was performed, the value was as low as 0.4-fold.
# [3] = test system: human iPS cells (1383D2 strain), CD30 expression; test: Undifferentiated marker (CD30) positive rate by flow cytometry; details: FIG. 7
# Experimental: The undifferentiated rate was evaluated for cells 4 days after suspension culture seeding, according to the following procedure.
# 1×10^5 cells were quantitatively collected, centrifuged (400 g, 5 min), and the supernatant was removed. 20 μL of PE Mouse Anti-Human CD30 (BD Pharmingen™) or PE Mouse IgG1, κ Isotype Control (BD Pharmingen™) diluted 5-fold with buffer was added and the cells were left standing for 20 min at 4° C. in the dark. After washing several times with buffer, the cells were analyzed using an Attune NXT Flow Cytometer (Thermo Fisher Scientific). […] However, measurement was not performed under conditions without a step of removing EDTA by centrifugation, because cells were not obtained.
compound,measurement,setting,value
"O=C(O)CN(CCN(CC(=O)O)CC(=O)O)CC(=O)O [EDTA, ethylenediaminetetraacetic acid]",state of cell aggregates after stirring (micrograph),[1],fragmented and the intercellular binding was weakened
same,proliferation in 4 days after passage (viable cell density),[2]; centrifugation step performed to remove the agent,0.4 fold
same,proliferation in 4 days after passage (viable cell density),[2]; no centrifugation removal of the dissociation agent,0.03 fold
same,proliferation of passaged cells (micrograph),"[2]; suspension cultured 4 days after passage, FIG. 4",proliferated hardly
same,aggregate formation of passaged cells (micrograph),"[2]; suspension cultured 4 days after passage, without a step of removing EDTA by centrifugation, FIG. 4",no aggregates were formed
same,undifferentiated marker (CD30) positive rate,"[3]; Passage 1, 4 days after suspension culture seeding",maintained high values
same,undifferentiated marker (CD30) positive rate,"[3]; Passage 2, 4 days after suspension culture seeding, EDTA only with centrifugation removal",maintained even after culture
